Assays:
Assay in all cases: In vitro percent disease control (radii of spore growth on agar)
Type in all cases: cell-based
Alternaria mali = conditions: Alternaria mali, read-out: % controlled, Al.
Procedure: (§1) The compounds of this invention were dissolved respectively in acetone in an amount equal to 10% of the final volume and then in purified water at the concentration of 100 ppm and 50 ppm.
(§2) Each of the solution was mixed with potato-sucrose-agar medium in a 6" petri dish and one of the fungi was spotted at the center of the dish. The dish was incubated in growth room for several days. The percent disease control was derived from the radii of spore growth. The screening tests in vitro condition are well-known to those skilled in the art.
(§3) The following fungi were used for the screening.

Rhizopus sp. = conditions: Rhizopus, read-out: % controlled, Rhi. sp.
Procedure: as §1, §2, §3

Phytophthora capsisi = conditions: Phytophthora, read-out: % controlled, Phy ca.
Procedure: as §1, §2, §3
2) Phy. ca.; Phytophthora capsisi

Physalospora baccae = conditions: read-out: % controlled, Phy ba.
Procedure: as §1, §2, §3
3) Phy. ba.; Physalospora baccae

[1] = system: Botryosphaeria dothidea Macrophoma sp.; conditions: Botryosphaeria dothidea, read-out: % controlled, Bo.do (Ma.)
Procedure: as §1, §2, §3
4) Bo.do(Ma); Botryosphaeria dothidea Macrophoma sp.

Glomerella cingulata = conditions: Colletotrichum gloeosporioides, read-out: % controlled, Glo.
Procedure: as §1, §2, §3
5) Glo.; Glomerella cingulata

Pyricalaria oryzae = conditions: for inhibition of growth at 50 ppm: read-out: % controlled, Py. or., 50 ppm; for inhibition of growth at 100 ppm: read-out: % controlled, Py. or., 100 ppm
Procedure: as §1, §2, §3
6) Py.or.; Pyricalaria oryzae

Rhizoctonia solani = conditions: Rhizoctonia solani, read-out: % controlled, Rhy. so.
Procedure: as §1, §2, §3
7) Rhi.so.; Rhizoctonia solani

Fusarium moniliforme = system: Fusarium moniliforme
Procedure: as §1, §2, §3
8) Fu.mo.; Fusarium moniliforme

Botry tris cinerea = conditions: read-out: % controlled, Bo ci.
Procedure: as §1, §2, §3
10) Bo.ci.; Botry tris cinerea

| SMILES | inhibition of growth at 50 ppm (Alternaria mali) | inhibition of growth at 100 ppm (Alternaria mali) | inhibition of growth at 50 ppm (Rhizopus sp.) | inhibition of growth at 100 ppm (Rhizopus sp.) | inhibition of growth at 50 ppm (Phytophthora capsisi) | inhibition of growth at 100 ppm (Phytophthora capsisi) | inhibition of growth at 50 ppm (Physalospora baccae) | inhibition of growth at 100 ppm (Physalospora baccae) | inhibition of growth at 50 ppm [1] | inhibition of growth at 100 ppm [1] | inhibition of growth at 50 ppm (Glomerella cingulata) | inhibition of growth at 100 ppm (Glomerella cingulata) | inhibition of growth at 50 ppm (Pyricalaria oryzae) | inhibition of growth at 100 ppm (Pyricalaria oryzae) | inhibition of growth at 50 ppm (Rhizoctonia solani) | inhibition of growth at 100 ppm (Rhizoctonia solani) | % controlled, Fu. mo. (Fusarium moniliforme; 50 ppm) | % controlled, Fu. mo. (Fusarium moniliforme; 100 ppm) | inhibition of growth at 50 ppm (Botry tris cinerea) | inhibition of growth at 100 ppm (Botry tris cinerea) |
| --- | --- | --- | --- | --- | --- | --- | --- | --- | --- | --- | --- | --- | --- | --- | --- | --- | --- | --- | --- | --- |
| C[Si](C)(C[Si](C)(Cn1cncn1)c1ccc(Cl)cc1)c1ccc(F)cc1 (stereo not drawn) [2-(4-chlorophenyl)-4-(4-fluorophenyl)-2,4-dimethyl-2,4-disila-1-(1H-1,2,4-triazol-1-yl)pentane] | 38% | 38% | 18% | 20% | 0% | 0% | 20% | 20% | 43% | 43% | 67% | 73% | 46% | 48% | 31% | 50% | 34% | 58% | 13% | 18% |
| C[Si](C)(C[Si](Cn1cncn1)(c1ccc(F)cc1)c1ccc(F)cc1)c1ccc(Cl)cc1 [4-(4-chlorophenyl)-2,2-bis(4-fluorophenyl)-4-methyl-2,4-disila-1-(1H-1,2,4-triazol-1-yl)pentane] | 32% | 34% | 78% | 89% | 10% | 12% | 80% | 100% | 76% | 87% | 87% | 90% | 76% | 87% | 100% | 100% | 45% | 56% | 76% | 80% |
| C[Si](C)(C[Si](Cn1cncn1)(c1ccc(Cl)cc1)c1ccc(Cl)cc1)c1ccc(F)cc1 [2,2-bis(4-chlorophenyl)-4-(4-fluorophenyl)-4-methyl-2,4-disila-1-(1H-1,2,4-triazol-1-yl)pentane] | 51% | 58% | 26% | 32% | 6% | 9% | 44% | 48% | 54% | 61% | 0% | 0% | 57% | 57% | 43% | 77% | 41% | 55% | 37% | 53% |
| C[Si](C)(C)C[Si](C)(Cn1cncn1)c1ccc(F)cc1 (stereo not drawn) [2-(4-fluorophenyl)-2,4,4-trimethyl-2,4-disila-1-(1H-1,2,4-triazol-1-yl)pentane] | 78% | 81% | 49% | 56% | 20% | 31% | 56% | 72% | 69% | 74% | – | – | 100% | 100% | 90% | 90% | 62% | 66% | 81% | 83% |
